In patent US20250304623A1, “PEPTIDES FOR INTRACELLULAR DELIVERY” (UNIVERSIDADE DE SANTIAGO DE COMPOSTELA, priority 2022, published 2025):
Starred links: 1 amine or outer side, 2 acyl side, 3 side chain; linkers in the order of their positions; H or OH if unused. Residues, ends and D or L forms follow the SMILES beside them. Groups on a side chain read outwards from the residue. *: point of attachment. Glutaryl = O=C(CCCC(=O)[*:2])[*:1]; NHNH2 = NN*

Experiments:
[1] = system: A549 cells expressing EGFP; experiment: Cas9-RNP delivery against EGFP (gene editing, plate reader), A549; type: cell-based; settings: for percentage of gene editing, GFP fluorescence intensity decrease (% of reduction): A549 cells
Method: To generate an EGFP expressing HeLa cell line, HeLa cells were transfected with EGFP pDNA (pEGFP-C1, Clontech) and stable transfectants were selected with 400 μg/mL of G-418 (Millipore). Green clones were selected by epifluorescence microscopy and tested for EGFP expression stability through several passages. […] All other EGFP-expressing cell lines were obtained in a similar way from parent non-EGFP-expressing cell lines.
Cells expressing EGFP were seeded in a 96 well plate the day before the experiment at a concentration of 50,000 cell/mL (100 μL/w) in DMEM+10% FBS+1% Gln-Abt. For robotic library screening, the delivery of Cas9-RNP against EGFP (RNP designed to knock-out the gene encoding for the enhanced green fluorescent protein (EGFP)) was performed. For RNP assembly, 9.2 μL of crRNA and 9.2 μL of tracrRNA were mixed in 211.6 μL of Nuclease-Free Duplex Buffer (IDT), incubated for 5 min at 95° C. and slowly cooled at rt (see I. Lostalé-Seijo, et al. Peptide/Cas9 nanostructures for ribonucleoprotein cell membrane transport and gene edition, Chem. Sci., 2017). Cas9 protein was dissolved in DMEM at a final concentration of 4 μM and equal volumes of the RNA complex and Cas9 were mixed and incubated for 5 min at rt. 75 μL of the corresponding amphiphile concentrations were added to 5 μL of RNP at 2 μM. The mixture was shaken for 30 min at room temperature before the addition to the cells. The cell medium was aspirated, and cells were washed twice with PBS. Cells were covered with 30 μL of DMEM and 20 μL of the RNP/amphiphile complexes were added to the cells (final peptide concentrations=2.5, 5 and 10 μM; final Cas9-RNP concentration=50 nM) and incubated for 4 h. After the incubation, the medium was replaced by 100 μL of fresh DMEM supplemented with 10% FBS. The total EGFP fluorescence was quantified after 72 h in a plate reader (FIG. 2, Table 1 (right) and Table 6). All experiments were done in triplicate.
(§1) Tables 1-7: RLuc (pDNA) or EGFP (mRNA) expression levels were normalized to Lipofectamine reagents (value=1) and expressed as fold-times signal increase. In the case of siRNA, the siRNA treated cells fluorescence was compared with siMOCK control fluorescence, while Cas9-RNP mediated knockout was measured against the fluorescence of untreated cells. In both siRNA and Cas9-RNP, values are expressed as % fluorescence reduction. Amphiphile concentration was 5 μM in all cases. All experiments were performed in triplicate.
Tables 26-31 show the mean (triplicates) percentage of gene editing, accounted by GFP fluorescence intensity decrease (% of reduction), measured after the transfection of Cas9-RNP by different amphiphiles at different concentrations in a variety of cell lines. Background values, accounted by untreated control cells, were subtracted for processing.

A549 cells = experiment: EGFP mRNA delivery, robotic library screening, A549; type: cell-based
Method: Cells were seeded in a 96 well plate the day before the experiment at a concentration of 50,000 cell/mL (100 μL/w) in DMEM+10% FBS+1% Gln-Abt. For robotic library screening, the delivery of EGFP-mRNA (from TriLink, fully substituted with 5-methoxyuridine, capped and polyadenylated; TriLink, CleanCap® EGFP mRNA (5moU), ref. L-7201) in six different cell lines was performed. Amphiphilic molecule stock solutions were prepared in DMSO as described above and diluted in DMEM to afford a range of concentrations. The solutions of EGFP-mRNA/amphiphilic molecule complexes were freshly prepared prior to the transfection experiments. 35 μL of the corresponding amphiphile were added to 10 μL of a solution of EGFP-mRNA at 10 ng/μL in DMEM. The mixture was shaken for 30 min at room temperature before the addition to the cells. The cell medium was aspirated, and cells were washed with PBS twice. Cells were covered with 39 μL of DMEM and 11 μL of the complex's solution were added to the cells and incubated for 4 h (final concentration of peptide=2.5, 5 and 10 μM; final concentration of EGFP-mRNA=25 ng/well). After the incubation, the medium was replaced by 100 μL of fresh DMEM supplemented with 10% FBS. The total EGFP fluorescence was quantified after 72 h in a well plate reader. Amphiphile transfection efficiency was compared and normalized to Lipofectamine® MessengerMax efficiency (value of 1 in Tables 1-5 and 7; double underlined numbers). All experiments were done in triplicate.
as §1
Tables 14-19 show the mean (triplicates) fluorescence intensity measured after the transfection of EGFP mRNA by different amphiphiles at different concentrations in a variety of cell lines. Background fluorescence values, accounted by untreated control cells, were subtracted for processing.

Molecule | percentage of gene editing, GFP fluorescence intensity decrease (% of reduction) ([1]; Myristoleyl, 5 μM) | percentage of gene editing, GFP fluorescence intensity decrease (% of reduction) ([1]; Myristoleyl, 10 μM) | percentage of gene editing, GFP fluorescence intensity decrease (% of reduction) ([1]; Myristoleyl, 15 μM) | percentage of gene editing, GFP fluorescence intensity decrease (% of reduction) ([1]; Oleyl, 15 μM) | percentage of gene editing, GFP fluorescence intensity decrease (% of reduction) ([1]; Palmitoleyl, 15 μM) | mean fluorescence intensity (EGFP mRNA) (A549 cells; Dodecanal, 2.5 μM) | mean fluorescence intensity (EGFP mRNA) (A549 cells; Dodecanal, 5 μM) | mean fluorescence intensity (EGFP mRNA) (A549 cells; Dodecanal, 10 μM) | mean fluorescence intensity (EGFP mRNA) (A549 cells; Myristoleyl, 2.5 μM) | mean fluorescence intensity (EGFP mRNA) (A549 cells; Myristoleyl, 5 μM) | mean fluorescence intensity (EGFP mRNA) (A549 cells; Myristoleyl, 10 μM) | mean fluorescence intensity (EGFP mRNA) (A549 cells; Oleyl, 2.5 μM) | mean fluorescence intensity (EGFP mRNA) (A549 cells; Oleyl, 5 μM) | mean fluorescence intensity (EGFP mRNA) (A549 cells; Oleyl, 10 μM) | mean fluorescence intensity (EGFP mRNA) (A549 cells; Palmitoleyl, 2.5 μM) | mean fluorescence intensity (EGFP mRNA) (A549 cells; Palmitoleyl, 10 μM) | mean fluorescence intensity (EGFP mRNA) (A549 cells; Petroselinyl, 2.5 μM) | mean fluorescence intensity (EGFP mRNA) (A549 cells; Petroselinyl, 5 μM) | mean fluorescence intensity (EGFP mRNA) (A549 cells; Petroselinyl, 10 μM) | other results
CC(=O)N[C@@H](CCCNC(=N)N)C(=O)N[C@@H](CCCCNC(=O)CCCC(=O)NN)C(=O)N[C@@H](Cc1c[nH]cn1)C(=O)N[C@@H](CCCNC(=N)N)C(=O)N[C@@H](CCCCNC(=O)CCCC(=O)NN)C(=O)N[C@@H](CCCCNC(=O)CCCC(=O)NN)C(=O)N[C@@H](Cc1c[nH]cn1)C(N)=O [7.3(L-H), Ac-RK*HRK*K*H-NH2] (Ac-RK([Glutaryl-NHNH2])HRK([Glutaryl-NHNH2])K([Glutaryl-NHNH2])H-NH2) | 60% | 29% | 11% | 9% | −6% | 570 | 375 | 587 | 19549 | 6729 | 2718 | 12392 | 4708 | 1954 | 52764 | 3995 | 9125 | 2712 | −119 | Cas9-RNP % fluorescence reduction ([1]; A549, 5 μM, Myr tail): 60%; Cas9-RNP % fluorescence reduction ([1]; A549, 5 μM, Pal tail): 67%; Cas9-RNP % fluorescence reduction ([1]; A549, 5 μM, Pet tail): 58%; efficiency on GFP silencing (Cas9-RNP delivery) ([1]; A549, myristoleyl, palmitoleyl or petroselinyl aldehydes): 60-70%; percentage of gene editing, GFP fluorescence intensity decrease (% of reduction) ([1]; Dodecanal, 15 μM): −9%; percentage of gene editing, GFP fluorescence intensity decrease (% of reduction) ([1]; Oleyl, 5 μM): 22%; percentage of gene editing, GFP fluorescence intensity decrease (% of reduction) ([1]; Oleyl, 10 μM): 31%; percentage of gene editing, GFP fluorescence intensity decrease (% of reduction) ([1]; Palmitoleyl, 5 μM): 67%; percentage of gene editing, GFP fluorescence intensity decrease (% of reduction) ([1]; Palmitoleyl, 10 μM): 35%; percentage of gene editing, GFP fluorescence intensity decrease (% of reduction) ([1]; Petroselinyl, 5 μM): 59%; percentage of gene editing, GFP fluorescence intensity decrease (% of reduction) ([1]; Petroselinyl, 10 μM): 29%; percentage of gene editing, GFP fluorescence intensity decrease (% of reduction) ([1]; Petroselinyl, 15 μM): 26%; mean fluorescence intensity (EGFP mRNA) (A549 cells; Palmitoleyl, 5 μM): 19296; mRNA delivery relative to Lipofectamine MessengerMAX (A549 cells; palmitoleyl aldehyde): two times better
Ac-RHLK*RHK*RRLK*RH-NH2 (Ac-RHLKRHKRRLKRH-NH2; not fully specified (residues 4, 7, 11); printed as Ac-RHLK*RHK*RRLK*RH-NH2; also: linker on K* not given here) [13(3His)] | 5% | 11% | 43% | 4% | 18% | 622 | 945 | 453 | 1558 | 1386 | 696 | 1063 | 1233 | 109 | 1138 | 65 | 2598 | 1675 | 1017 | 
